Test results: ChEMBL document CHEMBL4043274, “4-Hydroxy-2-pyridones: Discovery and evaluation of a novel class of antibacterial agents targeting DNA synthesis” (Bioorg Med Chem Lett, 2017)
In brackets after ≈: the same amount, converted by molar mass.

What was measured:
Escherichia coli [1] = test: Antibacterial activity against Escherichia coli BAS849 by CLSI M100-S17 protocol based method; format: functional
Escherichia coli [2] = test: Antibacterial activity against wild-type Escherichia coli ATCC 25922 by CLSI M100-S17 protocol based method; format: functional
Escherichia coli [3] = test: Antibacterial activity against wild-type Escherichia coli ATCC 25922 in presence of human serum albumin by CLSI M100-S17 protocol based method; format: functional
Escherichia coli [4] = test: Ratio of MIC in presence to absence of HSA for wild-type Escherichia coli ATCC 25922; format: functional
Escherichia coli [5] = test: Antibacterial activity against quinolone resistant Escherichia coli SKM18 by CLSI M100-S17 protocol based method; format: functional
[6] = Selectivity ratio of MIC for wild-type Escherichia coli ATCC 25922 to MIC for Escherichia coli BAS849; format: functional
Klebsiella pneumoniae = test: Antibacterial activity against Klebsiella pneumoniae ATCC 35657 by CLSI M100-S17 protocol based method; format: functional
Acinetobacter baumannii = test: Antibacterial activity against Acinetobacter baumannii ATCC BAA-747 by CLSI M100-S17 protocol based method; format: functional
Rattus norvegicus = test: Dose normalized AUC (0 to 24 hrs) in Sprague-Dawley rat at 10 mg/kg, iv administered as single dose; format: ADME, organism-based; conditions: in vivo
[7] = Protein binding in mouse plasma; format: ADME, cell-free; conditions: read-out: PPB (converted)
[8] = Terminal half life in Sprague-Dawley rat at 10 mg/kg, iv administered as single dose; format: ADME, organism-based; conditions: in vivo, read-out: beta t1/2 (converted)
Staphylococcus aureus [9] = test: Antibacterial activity against multidrug resistant Staphylococcus aureus by broth microdilution assay; format: functional
[10] = Volume of distribution at steady state in Sprague-Dawley rat at 10 mg/kg, iv administered as single dose; format: ADME, organism-based; conditions: in vivo, read-out: Vdss
[11] = Inhibition of Escherichia coli ATCC 25922 topoisomerase-4 ParC at 100 uM using kinetoplast DNA as substrate after 60 mins relative to control
[12] = Oral bioavailability in Sprague-Dawley rat; format: ADME, organism-based; conditions: in vivo
Escherichia coli [13] = test: Antibacterial activity against wild-type Escherichia coli ATCC 25922 infected in iv dosed CD-1 mouse assessed as mouse survival treated for 1 hr followed by reinfection with bacteria measured at 96 hrs post infection; format: functional; conditions: ATCC 25922, iv, read-out: PD50
Escherichia coli [14] = test: Antibacterial activity against clinical isolates of Escherichia coli by broth microdilution assay; format: functional
[15] = Selectivity ratio of MIC for quinolone resistant Escherichia coli SKM18 to MIC for wild-type Escherichia coli ATCC 25922; format: functional
Staphylococcus aureus [16] = test: Antibacterial activity against wild-type Staphylococcus aureus ATCC 29213 by CLSI M100-S17 protocol based method; format: functional

Structure (SMILES) | MIC (Escherichia coli [1]) | MIC (Escherichia coli [2]) | MIC (Escherichia coli [3]) | Ratio (Escherichia coli [4]) | MIC (Escherichia coli [5]) | MIC (Klebsiella pneumoniae) | MIC (Acinetobacter baumannii) | further results
CCc1c(-c2ccc(N(C)C)c(F)c2)[nH]c(=O)c(C(=O)O)c1O | 0.39 µg/mL (≈ 1.22 µM) | 7.8 µg/mL (≈ 24.4 µM) |  |  |  |  |  | 
CCc1c(-c2ccc(N3CCNCC3)cc2)[nH]c(=O)c(C(=O)O)c1O | 3.1 µg/mL (≈ 9.03 µM) | 6.3 µg/mL (≈ 18.3 µM) | 15.6 µg/mL | <3 | 62.5 µg/mL (≈ 182 µM) |  |  | 
CCc1cc(C(=O)O)c(=O)[nH]c1-c1ccc(N(C)C)cc1 | 0.03 µg/mL (≈ 0.105 µM) | 0.78 µg/mL (≈ 2.72 µM) |  |  | > 62.5 µg/mL |  |  | 
CCc1c(-c2ccc(N(CC)CC)cc2)[nH]c(=O)c(C(=O)O)c1O | 0.24 µg/mL (≈ 0.726 µM) | > 62.5 µg/mL |  |  |  |  |  | Selectivity ratio [6]: > 50
CCc1c(-c2ccc(N3C[C@@H]4[C@H](C3)[C@H]4NC)cc2)[nH]c(=O)c(C(=O)O)c1O | 0.049 µg/mL (≈ 0.133 µM) | 0.39 µg/mL (≈ 1.06 µM) | 3.1 µg/mL | 4 - 8 | 3.1 µg/mL (≈ 8.39 µM) | 0.39 µg/mL (≈ 1.06 µM) | 1.6 µg/mL (≈ 4.33 µM) | 
CCc1c(-c2ccc(N3CCCCC3)cc2)[nH]c(=O)c(C(=O)O)c1O | 0.39 µg/mL (≈ 1.14 µM) | > 62.5 µg/mL |  | >30 |  |  |  | Selectivity ratio [6]: > 50
CCc1c(-c2ccc(N3CC4CCCNC4C3)cc2)[nH]c(=O)c(C(=O)O)c1O (stereo not drawn) | 0.19 µg/mL (≈ 0.496 µM) | 0.78 µg/mL (≈ 2.03 µM) | 1.6 µg/mL | <4 | 3.1 µg/mL (≈ 8.08 µM) | 0.8 µg/mL (≈ 2.09 µM) | 1.6 µg/mL (≈ 4.17 µM) | AUC/dose (Rattus norvegicus): 13.9 µg·h/mL; fraction unbound [7]: 0.27; half-life [8]: 3.9 h; MIC (Staphylococcus aureus [9]): 0.125 to 16 µg/mL (≈ 0.326 to 41.7 µM); MIC50 (Staphylococcus aureus [9]): 0.5 µg/mL (≈ 1.3 µM); MIC90 (Staphylococcus aureus [9]): 8 µg/mL (≈ 20.9 µM); Vd [10]: 2.9 L/kg; IC50 [11]: 15.7 µM; bioavailability [12]: 8%; ED50 (Escherichia coli [13]): > 20 mg/kg; MIC (Escherichia coli [14]): 0.125 to 2 µg/mL (≈ 0.326 to 5.22 µM); MIC50 (Escherichia coli [14]): 0.5 µg/mL (≈ 1.3 µM); MIC90 (Escherichia coli [14]): 2 µg/mL (≈ 5.22 µM)
CCc1c(-c2ccc(Cl)cc2)[nH]c(=O)c(C(=O)O)c1O | 1.6 µg/mL (≈ 5.45 µM) | > 12.5 µg/mL |  |  |  |  |  | 
CC(C)c1c(-c2ccc(N(C)C)cc2)[nH]c(=O)c(C(=O)O)c1O | 0.12 µg/mL (≈ 0.379 µM) | 12.5 µg/mL (≈ 39.5 µM) |  |  | > 62.5 µg/mL |  |  | 
CCc1c(-c2ccc(N3CCC(N4CCCC4)C3)cc2)[nH]c(=O)c(C(=O)O)c1O (stereo not drawn) | 0.19 µg/mL (≈ 0.478 µM) | 1.6 µg/mL (≈ 4.03 µM) | 3.1 µg/mL | <4 | 6.3 µg/mL (≈ 15.9 µM) | 1.6 µg/mL (≈ 4.03 µM) | 3.1 µg/mL (≈ 7.8 µM) | Selectivity ratio [15]: < 4
CCOC(=O)c1c(O)c(CC)c(-c2ccc(N(C)C)cc2)[nH]c1=O | > 12.5 µg/mL | > 12.5 µg/mL |  |  |  |  |  | 
CCc1cc(C(=O)O)c(=O)n(C)c1-c1ccc(N(C)C)cc1 | 1.6 µg/mL (≈ 5.33 µM) | > 62.5 µg/mL |  |  | > 62.5 µg/mL |  |  | 
CCc1c(-c2ccc(N3CC4CC4(N)C3)cc2)[nH]c(=O)c(C(=O)O)c1O (stereo not drawn) | 0.04 µg/mL (≈ 0.113 µM) | 1.6 µg/mL (≈ 4.5 µM) | > 12.5 µg/mL |  | 6.3 µg/mL (≈ 17.7 µM) | 3.1 µg/mL (≈ 8.72 µM) | 6.3 µg/mL (≈ 17.7 µM) | 
CCc1c(-c2ccc(N3CCC(C4(N(C)C)CC4)C3)cc2)[nH]c(=O)c(C(=O)O)c1O (stereo not drawn) | 0.04 µg/mL (≈ 0.0972 µM) | 6.3 µg/mL (≈ 15.3 µM) |  | 4 - 8 | > 12.5 µg/mL | 12.5 µg/mL (≈ 30.4 µM) | > 25 µg/mL | 
CCc1c(-c2ccc(N3CCC(N(C)C)C3)cc2)[nH]c(=O)c(C(=O)O)c1O (stereo not drawn) | 0.19 µg/mL (≈ 0.512 µM) | 0.78 µg/mL (≈ 2.1 µM) | 3.1 µg/mL | <4 | 3.1 µg/mL (≈ 8.35 µM) | 1.6 µg/mL (≈ 4.31 µM) | 1.6 µg/mL (≈ 4.31 µM) | Selectivity ratio [15]: < 4
CCc1c(-c2ccc(C)cc2)[nH]c(=O)c(C(=O)O)c1O | 0.78 µg/mL (≈ 2.85 µM) | > 12.5 µg/mL |  |  |  |  |  | 
CCc1c(-c2ccc(N3CCC(C(C)(C)N)C3)cc2)[nH]c(=O)c(C(=O)O)c1O (stereo not drawn) | 0.78 µg/mL (≈ 2.02 µM) | 3.1 µg/mL (≈ 8.04 µM) | 12.5 µg/mL | 4 - 8 | 0.78 µg/mL (≈ 2.02 µM) | 6.3 µg/mL (≈ 16.3 µM) | > 12.5 µg/mL | 
CCc1c(-c2ccc(N3CCCC3)cc2)[nH]c(=O)c(C(=O)O)c1O | 0.03 µg/mL (≈ 0.0914 µM) | 1.6 µg/mL (≈ 4.87 µM) | > 62.5 µg/mL | >30 - 40 | > 62.5 µg/mL |  |  | Selectivity ratio [6]: > 50
CCc1c(-c2ccc(N(C)C)cc2)n(Cc2ccccc2)c(=O)c2c(O)cc(=O)oc12 |  | > 12.5 µg/mL |  |  |  |  |  | MIC (Staphylococcus aureus [16]): 3.1 µg/mL (≈ 7.44 µM)
CCc1c(-c2ccc(OC)cc2)[nH]c(=O)c(C(=O)O)c1O | ≤ 0.2 µg/mL | 7.8 µg/mL (≈ 27 µM) |  |  |  |  |  | 
CCc1c(-c2ccc(N(C)C)cc2OC)[nH]c(=O)c(C(=O)O)c1O | 6.3 µg/mL (≈ 19 µM) | > 12.5 µg/mL |  |  |  |  |  | 
